In assay [1] the test system is IL-10 mRNA. Put plainly: Quantitative RT-PCR of splenocyte mRNA after in vivo dosing: IL-10. More on the design: species or system mouse. The note with it: in vivo treated mice vs vehicle; p<0.05; FIG. 3. On the procedure:
FIG. 3: In vivo 6-(4-tert-butylphenoxy)pyridin-3-amine dosing leads to an upregulation of anti-inflammatory cytokine IL-10 mRNA in mouse spleen. […] Each bar represents the mean±SD (N=3 replicates). (*) p<0.05
(§1) In vivo treatment of mice and pharmacodynamic response: Mice experiments were performed in compliance with authorization to perform animal experiments (VD3323). Briefly, 6-8 weeks old wild type C57Bl6 mice were subcutaneously or intraperitoneally dosed with vehicle or compounds for different durations. Mice were sacrificed, spleens were harvested 24 hours post-last dosing. Splenocytes were analyzed for cell surface and intracellular markers expression using flow cytometry. RNA expression analyses were performed using quantitative real time PCR.

Assay [2] concerns IL-12a mRNA. Put plainly: Quantitative RT-PCR of splenocyte mRNA after in vivo dosing: IL-12a. More on the design: species or system mouse. The conditions noted are these: in vivo treated mice vs vehicle; p<0.01; FIG. 4. On the procedure:
FIG. 4: In vivo 6-(4-tert-butylphenoxy)pyridin-3-amine dosing leads to a downregulation of pro-inflammatory cytokine IL-12a mRNA in mouse spleen. […] Each bar represents the mean±SD (N=3 replicates). (**) p<0.01
as §1

The test system of assay [3] is activated CD4 T cells. Put plainly: Cell proliferation assay (Cell trace violet), activated CD4 T cells. Type of assay: cell-based. The conditions noted are these: control 0%. As for the experimental part: (§2) Following PBMC injections, mice were treated with vehicle or 6-(4-tert-butylphenoxy)pyridin-3-amine or Ruxolitinib starting at day 0. Mice were monitored from 60-85 days for symptoms of GvHD and scored according to a standard clinical scoring system for GvHD (Naserian et al., 2018) (see table 1) and a cumulative clinical score was obtained by addition of clinical score for individual parameters. A maximum score of 6 is measured when reaching endpoint. Cell proliferation assay: The effect of compounds on T cell proliferation was quantified using Cell trace violet (CTV). PBMCs/splenocytes were incubated with CTV for 20 minutes at 37° C. Cells were washed twice with RPMI complete medium. CTV labelled cells were stimulated with anti-CD3 and anti-CD28 antibodies and treated with control or compounds and cultured at 37° C. for 96 hours. The cell division index was measured by flow cytometry.
(§3) Flow cytometry analysis: Flow cytometry analysis was performed to quantify cell surface and intracellular markers expression and measure cell division index.

Assay [4] deals with activated CD8 T cells. Put plainly: Cell proliferation assay (Cell trace violet), activated CD8 T cells. The note with it: control 0%. Type of assay: cell-based. As for the experimental part: as §2, §3
The subject of assay [5] is IL-6. In words: ELISA of supernatant from activated human PBMC cultures: IL-6. Type of assay: cell-based. The conditions noted are these: control 0%. On the procedure:
Human PBMCs and mouse splenocyte in vitro stimulation and treatment: Human peripheral blood mononuclear cells (PBMCs) and mouse splenocytes from donors were stimulated in vitro with anti-CD3 and anti-CD28 antibodies. The stimulated cells were simultaneously treated with compounds for 96 hours. The T cells were profiled for different cell surface and intracellular markers and proliferation by flow cytometry.
ELISA assay: Supernatant from activated human PBMC cultures described above was separated from cells at the end of culture time. Key cytokines (IL-6, IFN-γ, IL-17) were quantified using sandwich ELISA reagents set (Diaclone) following manufacturer's instruction manual.

Assay [6] has as its system IL-6. Put plainly: Cytokine profiling in human patient plasma (MSD): IL-6. Type of assay: in vivo. The note with it: human patients, day 3 on treatment vs baseline pre-treatment. As for the experimental part:
Cytokine profiling in human plasma samples: Plasma samples from patients treated with 6-(4-tert-butylphenoxy)pyridin-3-amine were collected and stored at −80° C. until analysed. Cytokine and chemokine profiling was performed using MesoScale Discovery (MSD) platform and three assay panels: 1) Pro-inflammatory panel human, 2) Human IL-6 assay S-Plex, 3) Human IL-10 assay S-Plex.

Assay [7] concerns NSG mice injected with human PBMCs (GvHD). In words: Humanized GvHD mouse model, ex vivo pre-treated PBMCs plus in vivo treatment. The note with it: sum of individual scores; label = ex vivo PBMC treatment/in vivo treatment; DMSO/Vehicle 7.8. As for the experimental part: Humanized GvHD mouse model: 6-8 weeks old NSG mice were intraperitoneally injected with 10 million human peripheral blood mononuclear cells (PBMCs) as below:
A cumulative GvHD clinical score was calculated by addition of scores for individual parameters (e.g. cumulative score=BWL+posture+activity+fur texture+skin integrity+paleness).
Ex-vivo pre-treatment of PBMCs and in-vivo treatment of mice: Human PBMCs were ex-vivo treated with either DMSO or 6-(4-tert-butylphenoxy)pyridin-3-amine and then intraperitoneally injected into NSG mice. Mice were in vivo treated with different compounds as below: • i. DMSO ex vivo hPBMCs treatment (7 hrs), plus vehicle in vivo treatment • ii. DMSO ex vivo hPBMCs treatment (7 hrs), plus 6-(4-tert-butylphenoxy)pyridin-3-amine in vivo treatment for 3 days • iii. 6-(4-tert-butylphenoxy)pyridin-3-amine ex vivo hPBMCs treatment (7 hrs), plus 6-(4-tert-butylphenoxy)pyridin-3-amine in vivo treatment for 3 days • iv. DMSO ex vivo PBMCs treatment (7 hrs) plus Ruxolitinib in vivo treatment for 3 days • v. 6-(4-tert-butylphenoxy)pyridin-3-amine ex vivo hPBMCs treatment (7 hrs), plus Ruxolitinib in vivo treatment for 3 days
as §2

The test system of assay [8] is IL-17. Put plainly: Cytokine analysis in allogeneic bone marrow transplant (LEGENDplex): IL-17. Type of assay: in vivo, mouse. The note with it: allo-BM+splenocyte transplanted mice, day 36, vs vehicle; FIG. 6. As for the experimental part:
(§4) Allogeneic Bone marrow transplant: Recipient Balb/c mice were irradiated twice 3.75Gy (T=0 and T=4 h) in an X-ray source irradiator before transplantation at T=8 h. Treatment with antibiotics (Nopil) and analgesic (Dafalgan) was supplemented to drinking water 4 days before injection. Irradiated recipient Balb/c mice were transplanted with 5 million T cell depleted bone marrow+1 million splenocytes. Allogeneic recipient animals were treated with vehicle or 6-(4-tert-butylphenoxy)pyridin-3-amine subcutaneously at 20 mg/kg for two days immediately after allo-BM transplant, given a 10 days treatment holiday to recover body weight loss due to whole body irradiation and then treatment continued at 20 mg/kg. […] Animals were monitored for symptoms of GvHD development (severe body weight loss, alopecia and diarrhea.
(§5) Cytokine analysis in allogeneic Bone marrow transplant: The recipient animals were bled on day 36 and blood plasma was extracted to determine inflammatory cytokine concentration (IFNγ, IL-6, IL-17a) by LEGENDplex™ multiplexed assay.

Assay [9] concerns IL-6. In words: Cytokine analysis in allogeneic bone marrow transplant (LEGENDplex): IL-6. Type of assay: in vivo, mouse. The note with it: allo-BM+splenocyte transplanted mice, day 36, vs vehicle; FIG. 6. On the procedure:
as §4, §5

Take `CC(C)(C)c1ccc(Oc2ccc(N)cn2)cc1` [6-(4-tert-butylphenoxy)pyridin-3-amine]: the “IL-10 transcript in splenocytes” value in assay [1] is listed as “upregulation”. The “IL-12a transcript in splenocytes” value in assay [2] was “downregulation”. Further, the “Percentage inhibition of CD4 T cells (proliferation)” value in [3] is 81%. Moreover, the “Percentage inhibition of CD8 T cells (proliferation)” value in assay [4] came out at 56%. Further, the “Percentage downregulation of IL-6” value in [5] was 61%. In addition, the “Percentage downregulation of IL-6 in blood plasma” value in [6] is listed as 57% (day 3 on treatment). Moreover, the “Cumulative GvHD score” value in assay [7] was “decreased cumulative GvHD score significantly”. Also, the “IL-17 in blood plasma” value in assay [8] is given as “downregulation”. Moreover, the “IL-6 in blood plasma” value in [9] is “downregulation”.

The values are drawn from patent US20240269120A1, “Method for Treating an Autoimmune and Inflammatory Disease” (Cellestia Biotech AG, priority 2021, published 2024).
